Laboratory results as given in patent US12459951B2, “Compounds that interact with RAS superfamily proteins for treatment of cancers, inflammatory diseases, rasopathies, and fibrotic disease” (SHY Therapeutics, LLC, priority 2022, dated 2025).

Tests used:
[1] = test system: Smad2/Smad3 phosphorylation; experiment: Phospho-Smad2/3 Inhibition Assay (western blot), Panc-1; format: cell-based, human; conditions: at 10 μM, Panc-1 pancreatic cancer cell line; starred symbols = activation
Outline: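 Panc-1 cells (KRas G12D), starved overnight in 0.5% FBS, treated 3 h at 37° C with compound at 10 μM final (0.3% DMSO) or serial dilutions for IC50, then stimulated with 10 ng/ml TGF-b1 for 1 h. Phospho-Smad2 (Ser465/467) and phospho-Smad3 (Ser423/425) detected by western blot.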

[2] = test system: Erk1/2 phosphorylation; experiment: Erk1/2 Phosphorylation Assay (western blot), Panc-1; format: cell-based, human; conditions: at 10 μM, * = activation
Outline: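 KRas G12D Panc-1 cells were treated 6 h at 37° C with compound at 10 μM or serial dilutions for IC50 (0.3% DMSO). In method 1, cells were serum-starved overnight (0.5% FBS) and then given 1.5 ng/ml EGF for 15 min. In method 2, cells stayed in 10% FBS without stimulation. Lysate phospho-Erk1/2 (Thr202/Tyr204) was read by western blot.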

Compound	% inh of Smad2/3 phosphorylation in Panc-1 [1]	% inh of Erk1/2 phosphorylation in Panc-1 [2]
CCNC(=O)c1c(-c2ccn(C)n2)cn2nc(-c3nccn3C)nc(Nc3cc(OC)ccn3)c12 [Compound 173, N-Ethyl-4-((4-methoxypyridin-2-yl)amino)-2-(1-methyl-1H-imidazol-2-yl)-6-(1-methyl-1H-pyrazol-3-yl)pyrrolo[2,1-f][1,2,4]triazine-5-carboxamide]	D* (D* = 76-100% activation)	C (50-84% inhibition)
COc1ccnc(Nc2nc(-c3nccn3C)nn3cc(-c4ccn(C)n4)c(C(=O)NCC(F)(F)F)c23)c1 [Compound 174, 4-((4-Methoxypyridin-2-yl)amino)-2-(1-methyl-1H-imidazol-2-yl)-6-(1-methyl-1H-pyrazol-3-yl)-N-(2,2,2-trifluoro-ethyl)pyrrolo[2,1-f][1,2,4]triazine-5-carboxamide]	A* (A* = 1-25% activation)	D* (85-100% activation)
COc1ccnc(Nc2nc(-c3nccn3C)nn3cc(-c4ccn(C)n4)c(C(=O)NC4CC4)c23)c1 [Compound 175, N-Cyclopropyl-4-((4-methoxypyridin-2-yl)amino)-2-(1-methyl-1H-imidazol-2-yl)-6-(1-methyl-1H-pyrazol-3-yl)pyrrolo[2,1-f][1,2,4]triazine-5-carboxamide]	B* (B* = 26-45% activation)	D* (85-100% activation)
COCCNC(=O)c1c(-c2ccn(C)n2)cn2nc(-c3nccn3C)nc(Nc3cc(OC)ccn3)c12 [Compound 176, N-(2-Methoxyethyl)-4-((4-methoxypyridin-2-yl)amino)-2-(1-methyl-1H-imidazol-2-yl)-6-(1-methyl-1H-pyrazol-3-yl)pyrrolo[2,1-f][1,2,4]triazine-5-carboxamide]	B (B = 26-45% inhibition)	D* (85-100% activation)
COc1ccnc(Nc2nc(-c3nccn3C)nn3cc(-c4ccn(C)n4)c(C(=O)NCCN(C)C)c23)c1 [Compound 177, N-(2-(Dimethylamino)ethyl)-4-((4-methoxypyridin-2-yl)amino)-2-(1-methyl-1H-imidazol-2-yl)-6-(1-methyl-1H-pyrazol-3-yl)pyrrolo[2,1-f][1,2,4]triazine-5-carboxamide]	A (A = 1-25% inhibition)	D* (85-100% activation)
COc1ccnc(Nc2nc(-c3nccn3C)nn3cc(-c4ccn(C)n4)c(C(=O)N4CCCC4)c23)c1 [Compound 178, (4-((4-Methoxypyridin-2-yl)amino)-2-(1-methyl-1H-imidazol-2-yl)-6-(1-methyl-1H-pyrazol-3-yl)pyrrolo[2,1-f][1,2,4]triazin-5-yl)(pyrrolidin-1-yl)methanone]	B* (B* = 26-45% activation)	D* (85-100% activation)
COc1ccnc(Nc2nc(-c3nccn3C)nn3cc(-c4ccn(C)n4)c(C(=O)N4CCOCC4)c23)c1 [Compound 179, (4-((4-Methoxypyridin-2-yl)amino)-2-(1-methyl-1H-imidazol-2-yl)-6-(1-methyl-1H-pyrazol-3-yl)pyrrolo[2,1-f][1,2,4]triazin-5-yl)(morpho-lino)methanone]	C* (C* = 46-75% activation)	D* (85-100% activation)
Cc1c(-c2ccn(C)n2)cn2nc(-c3nccn3C)nc(Nc3cc(OCCNC(=O)CCCC[C@H]4SC[C@H]5NC(=O)N[C@H]54)ccn3)c12 [Compound 186, N-(2-((2-((5-Methyl-2-(1-methyl-1H-imidazol-2-yl)-6-(1-methyl-1H-pyrazol-3-yl)pyrrolo[2,1-f][1,2,4]triazin-4-yl)amino)pyridin-4-yl)oxy)ethyl)-5-((3aR,4R,6aS)-2-oxohexahydro-1H-thieno[3,4-d]imidazol-4-yl)pentanamide]	D* (D* = 76-100% activation)	A* (1-25% activation)
COc1ccnc(Nc2nc(-c3nccn3C)nn3cc(-c4ccn(CCN)n4)c(C)c23)c1 [Compound 187, 6-(1-(2-Aminoethyl)-1H-pyrazol-3-yl)-N-(4-methoxypyridin-2-yl)-5-methyl-2-(1-methyl-1H-imidazol-2-yl)pyrrolo[2,1-f][1,2,4]triazin-4-amine]	A* (A* = 1-25% activation)	A (1-25% inhibition)
COc1ccnc(Nc2nc(-c3nccn3CCN)nn3cc(-c4ccn(C)n4)c(C)c23)c1 [Compound 188, 2-(1-(2-Aminoethyl)-1H-imidazol-2-yl)-N-(4-methoxypyridin-2-yl)-5-methyl-6-(1-methyl-1H-pyrazol-3-yl)pyrrolo[2,1-f][1,2,4]triazin-4-amine]	B (B = 26-45% inhibition)	A (1-25% inhibition)
Cn1ccnc1-c1nc(O)c2c(-c3ccccc3)c(-c3cccnc3)cn2n1 [Compound 189, 2-(1-Methyl-1H-imidazol-2-yl)-5-phenyl-6-(pyridin-3-yl)pyrrolo[2,1-f][1,2,4]triazin-4-ol]	B (B = 26-45% inhibition)	A* (1-25% activation)
CO[C@H]1C[C@@H](Nc2nc(-c3nccn3C)nn3cc(-c4cccnc4)c(-c4ccccc4)c23)C1 [Compound 191, N-((1s,3s)-3-Methoxycyclobutyl)-2-(1-methyl-1H-imidazol-2-yl)-5-phenyl-6-(pyridin-3-yl)pyrrolo[2,1-f][1,2,4]triazin-4-amine]	A* (A* = 1-25% activation)	D* (85-100% activation)
CO[C@H]1C[C@H](Nc2nc(-c3nccn3C)nn3cc(-c4cccnc4)c(-c4ccccc4)c23)C1 [Compound 192, N-((1r,3r)-3-Methoxycyclobutyl)-2-(1-methyl-1H-imidazol-2-yl)-5-phenyl-6-(pyridin-3-yl)pyrrolo[2,1-f][1,2,4]triazin-4-amine]	A* (A* = 1-25% activation)	D* (85-100% activation)
COCCNc1nc(-c2nccn2C)nn2cc(-c3cccnc3)c(-c3ccccc3)c12 [Compound 195, N-(2-Methoxyethyl)-2-(1-methyl-1H-imidazol-2-yl)-5-phenyl-6-(pyridin-3-yl)pyrrolo[2,1-f][1,2,4]triazin-4-amine]	A* (A* = 1-25% activation)	B* (26-49% activation)
COc1ccnc(Nc2nc(-c3nccn3C)nn3cc(-c4cccnc4)c(-c4ccccc4)c23)c1 [Compound 196, N-(4-Methoxypyridin-2-yl)-2-(1-methyl-1H-imidazol-2-yl)-5-phenyl-6-(pyridin-3-yl)pyrrolo[2,1-f][1,2,4]triazin-4-amine]	C (C = 46-75% inhibition)	D* (85-100% activation)
CO[C@H]1C[C@@H](Nc2nc(-c3nccn3C)nn3cc(-c4ccncc4)c(-c4ccccc4)c23)C1 [Compound 198, N-((1s,3s)-3-Methoxycyclobutyl)-2-(1-methyl-1H-imidazol-2-yl)-5-phenyl-6-(pyridin-4-yl)pyrrolo[2,1-f][1,2,4]triazin-4-amine]	A (A = 1-25% inhibition)	D* (85-100% activation)
CO[C@H]1C[C@H](Nc2nc(-c3nccn3C)nn3cc(-c4ccncc4)c(-c4ccccc4)c23)C1 [Compound 199, N-((1r,3r)-3-Methoxycyclobutyl)-2-(1-methyl-1H-imidazol-2-yl)-5-phenyl-6-(pyridin-4-yl)pyrrolo[2,1-f][1,2,4]triazin-4-amine]	B (B = 26-45% inhibition)	D* (85-100% activation)
COCCNc1nc(-c2nccn2C)nn2cc(-c3ccncc3)c(-c3ccccc3)c12 [Compound 202, N-(2-Methoxyethyl)-2-(1-methyl-1H-imidazol-2-yl)-5-phenyl-6-(pyridin-4-yl)pyrrolo[2,1-f][1,2,4]triazin-4-amine]	A (A = 1-25% inhibition)	D* (85-100% activation)
CO[C@H]1C[C@H](Nc2nc(-c3nccn3C)nn3cc(-c4ccccc4)c(-c4ccccc4)c23)C1 [Compound 203, N-((1r,3r)-3-Methoxycyclobutyl)-2-(1-methyl-1H-imidazol-2-yl)-5,6-diphenylpyrrolo[2,1-f][1,2,4]triazin-4-amine]	D (D = 76-100% inhibition)	D (85-100% inhibition)
CO[C@H]1C[C@H](Nc2nc(-c3nccn3C)nn3cc(-c4cccc(CN)c4)c(-c4ccccc4)c23)C1 [Compound 204, 6-(3-(aminomethyl)phenyl)-N-((1r,3r)-3-methoxycyclobutyl)-2-(1-methyl-1H-imidazol-2-yl)-5-phenylpyrrolo[2,1-f][1,2,4]triazin-4-amine]	A (A = 1-25% inhibition)	D* (85-100% activation)
CO[C@H]1C[C@H](Nc2nc(-c3nccn3C)nn3cc(-c4cccc(OCCN)c4)c(-c4ccccc4)c23)C1 [Compound 205, 6-(3-(2-Aminoethoxy)phenyl)-N-((1r,3r)-3-methoxycyclobutyl)-2-(1-methyl-1H-imidazol-2-yl)-5-phenylpyrrolo[2,1-f][1,2,4]triazin-4-amine]	D (D = 76-100% inhibition)	D* (85-100% activation)
